US20260207621A1 (Vividion Therapeutics, Inc., priority 2022, published 2026)
pIC50: −log10 of the molar value.

Columns and labels:
KEAP1 C151 = biological target: T1, KEAP1 C151 (Homo sapiens, UniProt Q14145); assay: Nrf2 TMT measurement: in vitro TE50 for KEAP1 C151 (IA-DTB competition, targeted TMT mass spectrometry) in MDA-MB-468 cell lysate; format: binding; settings: in vitro target engagement of KEAP1 C151, targeted TMT, read-out: KEAP1_C151 TE50
T1 construct: treating 500 μg of cell lysate generated from MDA-MB-468 breast cancer cells with DMSO or compound; endogenous in cells; host or cells: MDA-MB-468 breast cancer cell lysate
T1 sequence (Q14145 whole entry): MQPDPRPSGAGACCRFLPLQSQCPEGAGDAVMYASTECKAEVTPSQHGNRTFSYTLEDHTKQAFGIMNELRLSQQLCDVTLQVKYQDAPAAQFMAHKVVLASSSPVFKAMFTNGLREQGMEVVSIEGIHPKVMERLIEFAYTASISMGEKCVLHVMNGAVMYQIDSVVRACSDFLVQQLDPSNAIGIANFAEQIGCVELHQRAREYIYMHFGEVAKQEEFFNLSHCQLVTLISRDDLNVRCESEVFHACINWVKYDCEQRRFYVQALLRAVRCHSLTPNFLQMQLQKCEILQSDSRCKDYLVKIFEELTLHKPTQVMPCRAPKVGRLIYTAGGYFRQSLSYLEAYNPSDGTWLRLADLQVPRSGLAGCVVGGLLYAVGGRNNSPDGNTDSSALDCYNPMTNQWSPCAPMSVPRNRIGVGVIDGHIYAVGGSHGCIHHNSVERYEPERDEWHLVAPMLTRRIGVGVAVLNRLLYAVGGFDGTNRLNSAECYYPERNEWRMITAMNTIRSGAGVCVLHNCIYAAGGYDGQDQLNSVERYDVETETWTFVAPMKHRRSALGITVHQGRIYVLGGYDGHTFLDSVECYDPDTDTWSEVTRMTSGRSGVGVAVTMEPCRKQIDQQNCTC
Outline: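 MDA-MB-468 lysate (500 μg) treated with compound for 1 h at room temperature, then 200 μM IA-DTB for 1 h. Labeled peptides streptavidin-enriched after trypsin digest, TMT-labeled and quantified by targeted MS3 on the KEAP1 C151 peptide. IC50 from dose-response curve fitting.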

Nrf2 = Nrf2 antagonism assay: ARE luciferase reporter in KYSE-70 cells; format: cell-based; settings: Homo sapiens, KYSE-70, KYSE-70 cells, positive Imax corresponds to Nrf2 antagonism, read-out: KYSE70 Cellular ARE Luciferase Imax (%)
Outline: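 KYSE-70 esophageal squamous carcinoma cells carrying Nrf2 W24C (constitutively Nrf2-high) with an ARE-driven luciferase reporter. Loss of luciferase signal reflects Nrf2 antagonism via KEAP1 C151 engagement. IC50 and Imax come from dose-response curves; positive Imax means antagonism.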

SMILES	pIC50 (KEAP1 C151)	Emax (Nrf2)
C=CC(=O)N1CCOC[C@H]1c1cc(Cl)cc(-c2nccc(C)n2)c1 (single isomer, unassigned) [Compound 87]	8.00	81%
C=CC(=O)N1[C@H](C(=O)NC)COC[C@H]1c1cc(Cl)nc(-c2cc(N)ncn2)c1 (single isomer, unassigned) [Compound 173]	> 8.19	86%
C=CC(=O)N1CC(F)(F)CCC1c1cc(Cl)cc(-c2ncc(N)cn2)c1 (single isomer, unassigned) [Compound 238, 1-(2-(3-(5-aminopyrimidin-2-yl)-5-chlorophenyl)-5,5-difluoropiperidin-1-yl)prop-2-en-1-one]	7.47	82%
C=CC(=O)N1CCS(=O)(=O)CC1c1cc(Cl)cc(-c2cc(C)ncn2)c1 (single isomer, unassigned) [Compound 52, 1-(3-(3-chloro-5-(6-methylpyrimidin-4-yl)phenyl)-1,1-dioxidothiomorpholino)prop-2-en-1-one]	6.76	80%
C=CC(=O)N1CCOCC1c1cc(Cl)nc(-c2ccc(F)c(C(N)=O)c2)c1 (single isomer, unassigned) [Compound 65, 5-(4-(4-acryloylmorpholin-3-yl)-6-chloropyridin-2-y1)-2-fluorobenzamide]	7.62	88%
C=CC(=O)N1CCS(=O)(=O)CC1c1cc(Cl)cc(-c2cc[nH]c(=O)c2)c1 (single isomer, unassigned) [Compound 39, 4-(3-(4-acryloyl-1,1-dioxidothiomorpholin-3-yl)-5-chlorophenyl)pyridin-2(1H)-one]	7.31	66%
C=CC(=O)N1CC[C@](C)(O)C[C@H]1c1cc(Cl)cc(-c2ncc(N)cn2)c1 (single isomer, unassigned) [Compound 265]	4.95	51%
C=CC(=O)N1CCOCC1c1cc(Cl)cc(-c2ccnc(N)n2)c1 (single isomer, unassigned) [Compound 40, 1-(3-(3-(2-aminopyrimidin-4-y1)-5-chlorophenyl)morpholino)prop-2-en-1-one]	7.40	93%
C=CC(=O)N1CCOC[C@H]1c1cc(Cl)cc(-c2cc(OC)ncn2)c1 (single isomer, unassigned) [Compound 86]	8.14	83%
C=CC(=O)N1CCOCC1c1cc(Cl)cc(-c2nc[nH]n2)c1 (single isomer, unassigned) [Compound 41, 1-(3-(3-chloro-5-(1H-1,2,4-triazol-3-yl)phenyl)morpholino)prop-2-en-1-one]	6.70	68%
C=CC(=O)N1[C@H](C)COC[C@H]1c1cc(Cl)nc(-c2ccc(F)c(C(N)=O)c2)c1 (single isomer, unassigned) [Compound 139]	7.13	90%
C=CC(=O)N1CCOCC1c1cc(Cl)cc(-c2cc(C(N)=O)ccc2F)c1 (single isomer, unassigned) [Compound 60, 3′-(4-acryloylmorpholin-3-yl)-5′-chloro-6-fluoro-[1,1′-biphenyl]-3-carboxamide]	7.24	70%
C=CC(=O)N1CCC(F)(F)CC1c1cc(Cl)cc(-c2cc(C)ncn2)c1 (single isomer, unassigned) [Compound 285, 1-(2-(3-chloro-5-(6-methylpyrimidin-4-yl)phenyl)-4,4-difluoropiperidin-1-yl)prop-2-en-1-one]	7.66	83%

Further molecules by rising pIC50 (KEAP1 C151), results first:

pIC50 (KEAP1 C151)	SMILES	Emax (Nrf2)
5.86	C=C(Cl)C(=O)N1CCOC[C@H]1c1cc(Cl)cc(-c2ncnc(N)n2)c1 (single isomer, unassigned) [Compound 294]	91%
6.02	C=CC(=O)N1CCOC[C@H]1c1cc(Cl)cc(-c2c[nH]nn2)c1 (single isomer, unassigned) [Compound 269]	72%
6.22	C=CC(=O)N1CCCOCC1c1cc(Cl)cc(-c2ncnc(N)n2)c1 (racemic) [Compound 162, 1-(3-(3-(4-amino-1,3,5-triazin-2-yl)-5-chlorophenyl)-1,4-oxazepan-4-yl)prop-2-en-1-one]	80%
6.48	C=CC(=O)N1CCS(=O)(=O)CC1c1cc(Cl)cc(-c2ccn(C)c(=O)c2)c1 (racemic) [Compound 29, 4-(3-(4-acryloyl-1,1-dioxidothiomorpholin-3-yl)-5-chlorophenyl)-1-methylpyridin-2(1H)-one]	62%
6.55	C=CC(=O)N1CCOC[C@H]1c1cc(Cl)cc(-c2ncnc(NCCCN(C)C)n2)c1 (single isomer, unassigned) [Compound 221]	78%
7.07	C=CC(=O)N1CCOC[C@H]1c1cc(Cl)cc(-c2nccc(NC(C)=O)n2)c1 (single isomer, unassigned) [Compound 256]	63%
7.08	C=CC(=O)N1CCC(F)(F)CC1c1cc(Cl)cc(-c2ccnc(N)n2)c1 (single isomer, unassigned) [Compound 284, 1-(2-(3-(2-aminopyrimidin-4-yl)-5-chlorophenyl)-4,4-difluoropiperidin-1-yl)prop-2-en-1-one]	94%
7.16	C=CC(=O)N1CCOC[C@H]1c1cc(Cl)cc(-c2cc(N)on2)c1 (single isomer, unassigned) [Compound 212]	90%
7.28	C=CC(=O)N1CCOC[C@H]1c1cc(Cl)cc(-c2ccnc(N)c2)c1 (single isomer, unassigned) [Compound 136]	81%
7.38	C=CC(=O)N1CCOCC1c1cc(Cl)cc(-c2ccnc(OC)n2)c1 (single isomer, unassigned) [Compound 49, 1-(3-(3-chloro-5-(2-methoxypyrimidin-4-yl)phenyl)morpholino)prop-2-en-1-one]	91%
7.60	C=CC(=O)N1CCOCC1c1cc(Cl)cc(-c2ccn3ccnc3c2)c1 (single isomer, unassigned) [Compound 43, 1-(3-(3-chloro-5-(imidazo[1,2-a]pyridin-7-yl)phenyl)morpholino)prop-2-en-1-one]	87%
7.64	C=CC(=O)N1CCOC[C@H]1c1cc(Cl)cc(-c2ncccn2)c1 (single isomer, unassigned) [Compound 10]	79%
7.77	C=CC(=O)N1CCOC[C@H]1c1cc(Cl)cc(-c2cnc(N)cn2)c1 (single isomer, unassigned) [Compound 251]	93%
7.80	C=CC(=O)N1CCOCC1c1cc(Cl)cc(-c2cc(=O)[nH]cn2)c1 (single isomer, unassigned) [Compound 94, 6-(3-(4-acryloylmorpholin-3-yl)-5-chlorophenyl)pyrimidin-4(3H)-one]	87%
7.92	C=CC(=O)N1CCOC[C@H]1c1cc(Cl)cc(-c2nc(N)nc(N)n2)c1 (single isomer, unassigned) [Compound 191]	93%
7.97	C=CC(=O)N1CCOC[C@H]1c1cc(Cl)cc(-c2cccc(NC(C)=O)c2)c1 (single isomer, unassigned) [Compound 2]	52%
9.00	C=CC(=O)N1CCOCC1c1cc(Cl)nc(-c2ccn3ccnc3c2)c1 (single isomer, unassigned) [Compound 64, 1-(3-(2-chloro-6-(imidazo[1,2-a]pyridin-7-yl)pyridin-4-yl)morpholino)prop-2-en-1-one]	75%
